Experiments:
Assay in all cases: Test J Compounds 2 and 6 alone and in combination with other herbicides, foliage spray
Settings in all cases: applied alone
barnyardgrass (ECHCG) = assay type: in vivo, Echinochloa crus-galli; set-up: key: percentage herbicidal effect (observed)
From the text: (§1) Colby's Equation was used to calculate the expected additive herbicidal effect of the mixtures of Compound 6 with Harmony® Extra (i.e. a 2:1 mixture by weight of thifensulfuron-methyl and tribenuron-methyl). Colby's Equation (Colby, S. R. “Calculating Synergistic and Antagonistic Responses of Herbicide Combinations,” Weeds, 15(1), pp 20-22 (1967)) calculates the expected additive effect of herbicidal mixtures, and for two active ingredients is of the form: Pa+b=Pa+Pb−(PaPb/100) wherein • Pa+b is the percentage effect of the mixture expected from additive contribution of the individual components, • Pa is the observed percentage effect of the first active ingredient at the same use rate as in the mixture, and • Pb is the observed percentage effect of the second active ingredient at the same use rate as in the mixture.
(§2) Seeds of test plants consisting of barnyardgrass (ECHCG; Echinochloa crus-galli (L.) Beauv.), blackgrass (ALOMY; Alopecurus myosuroides Huds.), Surinam grass (BRADC; Urochloa decumbens (Staph) R. D. Webster, previously named Brachiaria decumbens Stapf), cocklebur (XANST, Xanthium strumarium L.), corn (ZEAMD, Zea mays L. cv. ‘Pioneer 33G26’), large crabgrass (DIGSA, Digitaria sanguinalis (L.) Scop.), giant foxtail (SETFA, Setaria faberi Herrm.), lambsquarters (CHEAL, Chenopodium album L.), morningglory (IPOCO, Ipomoea coccinea L.), pigweed (AMARE, Amaranthus retroflexus L.), velvetleaf (ABUTH, Abutilon theophrasti Medik.) wheat (TRZAS, Triticum aestivum L. cv. ‘Recital’) and wild oat (AVEFA, Avena fatua L.) were planted in Redi-Earth® planting medium (Scotts Company, 14111 Scottslawn Road, Marysville, Ohio 43041) comprising spaghnum peat moss and vermiculite. Seeds of small-seeded species were planted about 1 cm deep; larger seeds were planted about 2.5 cm deep. Plants were grown in a greenhouse using supplemental lighting to maintain a photoperiod of about 14 hours; daytime and nighttime temperatures were about 24-30° C. and 22-25° C., respectively. Balanced fertilizer was applied through the watering system. The plants were grown for 7 to 11 days so that at time of treatment the plants ranged in height from 2 to 18 cm (1- to 4-leaf stage). Treatments consisted of Compounds 2 and 6 (technical material), atrazine (90DF), terbacil (Sinbar® 80DF), hexazinone (Velpar® 75WG), diuron (Karmex® 80WP) and paraquat (Gramoxone® Extra, 37%) alone and in combination, suspended or dissolved in an aqueous solvent comprising a nonionic surfactant and applied as a foliage spray using a volume of 541 L/ha. Each treatment was triply replicated. […] Treated plants and controls were maintained in the greenhouse and watered as needed with care to not wet the foliage for the first 24 hours after treatment. The effects on the plants 15 days after treatment were visually compared to untreated controls. Plant response ratings, listed in Table J as the means of the thee replicates, are based on a scale of 0 to 100 where 0 is no effect and 100 is complete control. Also listed in Table J are the expected effects for the mixtures calculated using Colby's Equation.

blackgrass (ALOMY) = assay type: in vivo, Alopecurus myosuroides; set-up: key: 0 = no effect, 100 = complete control
From the text: as §1, §2

Surinam grass (BRADC) = assay type: in vivo, Urochloa decumbens; set-up: key: 0 = no effect, 100 = complete control
From the text: as §1, §2

cocklebur (XANST) = assay type: in vivo, Xanthium strumarium; set-up: key: 0 = no effect, 100 = complete control
From the text: as §2

corn (ZEAMD) = assay type: in vivo, Zea mays; set-up: key: percentage herbicidal effect (observed)
From the text: as §1, §2

large crabgrass (DIGSA) = assay type: in vivo, Digitaria sanguinalis; set-up: key to DIGSA Obsd.: 0 = no effect, 100 = complete control
From the text: as §1, §2

giant foxtail (SETFA) = assay type: in vivo, Setaria faberi; set-up: key: 0 = no effect, 100 = complete control
From the text: as §2

lambsquarters (CHEAL) = assay type: in vivo, Chenopodium album; set-up: key: % herbicidal effect (observed)
From the text: as §1, §2

morningglory (IPOCO) = assay type: in vivo, Ipomoea coccinea; set-up: key: 0 = no effect, 100 = complete control
From the text: as §2

pigweed (AMARE) = assay type: in vivo, Amaranthus retroflexus; set-up: key: 0 = no effect, 100 = complete control
From the text: as §1, §2

velvetleaf (ABUTH) = assay type: in vivo, Abutilon theophrasti; set-up: key: 0 = no effect, 100 = complete control
From the text: as §1, §2

wheat (TRZAS) = assay type: in vivo, Triticum aestivum; set-up: key: 0 = no effect, 100 = complete control
From the text: as §1, §2

wild oat (AVEFA) = assay type: in vivo, Avena fatua; set-up: key: 0 = no effect, 100 = complete control
From the text: as §1, §2

## CN(C)c1nc(=O)n(C2CCCCC2)c(=O)n1C [hexazinone]
Barnyardgrass (ECHCG); 100 g a.i./ha
  ECHCG Obsd.: 15
Barnyardgrass (ECHCG); 200 g a.i./ha
  ECHCG Obsd.: 53
Blackgrass (ALOMY); 100 g a.i./ha
  ALOMY Obsd.: 40
Blackgrass (ALOMY); 200 g a.i./ha
  ALOMY Obsd.: 78
Surinam grass (BRADC); 100 g a.i./ha
  BRADC Obsd.: 62
Surinam grass (BRADC); 200 g a.i./ha
  BRADC Obsd.: 70
Cocklebur (XANST); 100 g a.i./ha
  XANST Obsd.: 100
Cocklebur (XANST); 200 g a.i./ha
  XANST Obsd.: 100
Corn (ZEAMD); 100 g a.i./ha
  ZEAMD Obsd.: 45
Corn (ZEAMD); 200 g a.i./ha
  ZEAMD Obsd.: 53
Large crabgrass (DIGSA); 100 g a.i./ha
  DIGSA Obsd.: 38
Large crabgrass (DIGSA); 200 g a.i./ha
  DIGSA Obsd.: 53
Giant foxtail (SETFA); 100 g a.i./ha
  SETFA Obsd.: 28
Giant foxtail (SETFA); 200 g a.i./ha
  SETFA Obsd.: 45
Lambsquarters (CHEAL); 100 g a.i./ha
  CHEAL Obsd.: 78
Lambsquarters (CHEAL); 200 g a.i./ha
  CHEAL Obsd.: 87
Morningglory (IPOCO); 100 g a.i./ha
  IPOCO Obsd.: 92
Morningglory (IPOCO); 200 g a.i./ha
  IPOCO Obsd.: 100
Pigweed (AMARE); 100 g a.i./ha
  AMARE Obsd.: 88
Pigweed (AMARE); 200 g a.i./ha
  AMARE Obsd.: 80
Velvetleaf (ABUTH); 100 g a.i./ha
  ABUTH Obsd.: 82
Velvetleaf (ABUTH); 200 g a.i./ha
  ABUTH Obsd.: 77
Wheat (TRZAS); 100 g a.i./ha
  TRZAS Obsd.: 35
Wheat (TRZAS); 200 g a.i./ha
  TRZAS Obsd.: 60
Wild oat (AVEFA); 100 g a.i./ha
  AVEFA Obsd.: 53
Wild oat (AVEFA); 200 g a.i./ha
  AVEFA Obsd.: 62

## C[n+]1ccc(-c2cc[n+](C)cc2)cc1 [paraquat]
Barnyardgrass (ECHCG); 31 g a.i./ha
  ECHCG Obsd.: 45
Barnyardgrass (ECHCG); 62 g a.i./ha
  ECHCG Obsd.: 77
Blackgrass (ALOMY); 31 g a.i./ha
  ALOMY Obsd.: 60
Blackgrass (ALOMY); 62 g a.i./ha
  ALOMY Obsd.: 73
Surinam grass (BRADC); 31 g a.i./ha
  BRADC Obsd.: 67
Surinam grass (BRADC); 62 g a.i./ha
  BRADC Obsd.: 95
Cocklebur (XANST); 31 g a.i./ha
  XANST Obsd.: 100
Cocklebur (XANST); 62 g a.i./ha
  XANST Obsd.: 87
Corn (ZEAMD); 31 g a.i./ha
  ZEAMD Obsd.: 43
Corn (ZEAMD); 62 g a.i./ha
  ZEAMD Obsd.: 63
Large crabgrass (DIGSA); 31 g a.i./ha
  DIGSA Obsd.: 78
Large crabgrass (DIGSA); 62 g a.i./ha
  DIGSA Obsd.: 85
Giant foxtail (SETFA); 31 g a.i./ha
  SETFA Obsd.: 72
Giant foxtail (SETFA); 62 g a.i./ha
  SETFA Obsd.: 88
Lambsquarters (CHEAL); 31 g a.i./ha
  CHEAL Obsd.: 95
Lambsquarters (CHEAL); 62 g a.i./ha
  CHEAL Obsd.: 100
Morningglory (IPOCO); 31 g a.i./ha
  IPOCO Obsd.: 58
Morningglory (IPOCO); 62 g a.i./ha
  IPOCO Obsd.: 90
Pigweed (AMARE); 31 g a.i./ha
  AMARE Obsd.: 90
Pigweed (AMARE); 62 g a.i./ha
  AMARE Obsd.: 100
Velvetleaf (ABUTH); 31 g a.i./ha
  ABUTH Obsd.: 70
Velvetleaf (ABUTH); 62 g a.i./ha
  ABUTH Obsd.: 92
Wheat (TRZAS); 31 g a.i./ha
  TRZAS Obsd.: 35
Wheat (TRZAS); 62 g a.i./ha
  TRZAS Obsd.: 83
Wild oat (AVEFA); 31 g a.i./ha
  AVEFA Obsd.: 42
Wild oat (AVEFA); 62 g a.i./ha
  AVEFA Obsd.: 63

## Cc1[nH]c(=O)n(C(C)(C)C)c(=O)c1Cl [terbacil]
Barnyardgrass (ECHCG); 250 g a.i./ha
  ECHCG Obsd.: 15
Barnyardgrass (ECHCG); 500 g a.i./ha
  ECHCG Obsd.: 63
Blackgrass (ALOMY); 250 g a.i./ha
  ALOMY Obsd.: 62
Blackgrass (ALOMY); 500 g a.i./ha
  ALOMY Obsd.: 97
Surinam grass (BRADC); 250 g a.i./ha
  BRADC Obsd.: 75
Surinam grass (BRADC); 500 g a.i./ha
  BRADC Obsd.: 73
Cocklebur (XANST); 250 g a.i./ha
  XANST Obsd.: 68
Cocklebur (XANST); 500 g a.i./ha
  XANST Obsd.: 97
Corn (ZEAMD); 250 g a.i./ha
  ZEAMD Obsd.: 30
Corn (ZEAMD); 500 g a.i./ha
  ZEAMD Obsd.: 75
Large crabgrass (DIGSA); 250 g a.i./ha
  DIGSA Obsd.: 45
Large crabgrass (DIGSA); 500 g a.i./ha
  DIGSA Obsd.: 48
Giant foxtail (SETFA); 250 g a.i./ha
  SETFA Obsd.: 18
Giant foxtail (SETFA); 500 g a.i./ha
  SETFA Obsd.: 55
Lambsquarters (CHEAL); 250 g a.i./ha
  CHEAL Obsd.: 93
Lambsquarters (CHEAL); 500 g a.i./ha
  CHEAL Obsd.: 100
Morningglory (IPOCO); 250 g a.i./ha
  IPOCO Obsd.: 78
Morningglory (IPOCO); 500 g a.i./ha
  IPOCO Obsd.: 100
Pigweed (AMARE); 250 g a.i./ha
  AMARE Obsd.: 63
Pigweed (AMARE); 500 g a.i./ha
  AMARE Obsd.: 97
Velvetleaf (ABUTH); 250 g a.i./ha
  ABUTH Obsd.: 92
Velvetleaf (ABUTH); 500 g a.i./ha
  ABUTH Obsd.: 100
Wheat (TRZAS); 250 g a.i./ha
  TRZAS Obsd.: 55
Wheat (TRZAS); 500 g a.i./ha
  TRZAS Obsd.: 90
Wild oat (AVEFA); 250 g a.i./ha
  AVEFA Obsd.: 68
Wild oat (AVEFA); 500 g a.i./ha
  AVEFA Obsd.: 97

Source: patent US20060069132A1, “Azolecarboxamide herbicides” (priority 2004, published 2006)
